Our source for the GI50 and TGI values is PubChem BioAssay (NCI).

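Following 48 hours of exposure in 96-well plates, responses at five concentrations were used to interpolate endpoints linearly. Abbreviation: GI50, concentration required for 50% inhibition of growth. Definition used: TGI = concentration required for complete inhibition of growth.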 Bounds are passed on as bounds.

What all share (assay): NCI-60 cell line screen, 48 h
The subject of assay [1] is A549 NSCLC.
Assay [2] deals with COLO 205 colon.
Assay [3] concerns DU-145 prostate.
Assay [4] relates to MDA-MB-435.
In assay [5] the test system is NCI-H460 lung.
The test system of assay [6] is NCI-H522 lung.
Assay [7] relates to SF-268 CNS.
The subject of assay [8] is SF-539 CNS.
The subject of assay [9] is U251 CNS.
Assay [10] relates to M14 melanoma.

For `Cc1nc(N)sc1C(=O)Nc1cc(C(=O)NCCCN(C)C)n(C)c1`, the GI50 in [1] was above 100 µM; in assay [2], above 100 µM; in [3] it was 67.3 µM; in assay [4], above 100 µM; in assay [5], above 100 µM; in assay [6] it was above 100 µM. The GI50 in [7], in assay [8] and in assay [9] was above 100 µM in each case. Also, the TGI in [1], in assay [2], in assay [3], in [4], in assay [5] and in assay [6] was above 100 µM in each case. In addition, the TGI in assay [7], in [8] and in assay [9] was above 100 µM in each case.

Regarding `COc1ccc2c(c1)[n+](=O)c(C(=O)/C=C/c1cc(OC)c(OC)c(OC)c1)c(C)n2[O-]`, the GI50 was 34.9 µM in assay [1]; 65 µM in assay [2]; 10.7 µM in [3]; 23.3 µM in assay [10]; above 100 µM in assay [4]; 23 µM in assay [5]. Moreover, the GI50 in assay [6] was 19 µM; in [7], 8.15 µM; in assay [8], 14.4 µM; in [9] it was 9.87 µM. The TGI in assay [1] is above 100 µM; in assay [2], above 100 µM; in assay [3] it was 25.4 µM; in assay [10], above 100 µM; in assay [4], above 100 µM; in [5], above 100 µM. The TGI was 56.6 µM in assay [6], 40.4 µM in assay [7], 29.7 µM in [8] and 22.4 µM in assay [9].

In the case of `O=C(OCc1ccc2c(Cl)cc(Cl)c(O)c2n1)c1cc2ccccc2[nH]1`, the GI50 in [1] was 1.75 µM; in assay [2], 0.834 µM; in assay [3] it was 0.916 µM; in assay [10], 0.279 µM; in assay [4], 0.318 µM; in assay [5] it was 1.66 µM. Besides, the GI50 in assay [6] was 0.361 µM; in assay [7] it was 1.5 µM; in assay [8] it was 0.587 µM; in [9], 1.61 µM. Also, the TGI in assay [1] was determined as 4.01 µM; in assay [2], 2.45 µM; in [3], 2.19 µM; in assay [10], 0.898 µM; in assay [4] it was 1.04 µM; in assay [5], 3.52 µM. Also, the TGI in assay [6] was 1.15 µM; in assay [7], 2.97 µM; in assay [8], 1.48 µM; in assay [9] it was 3.22 µM.

On to `COc1ccc(-c2csc(-c3cc(Cl)cc(Cl)c3Cl)n2)cc1`, for which the GI50 was 68.3 µM in [1]; above 100 µM in [2]; 63.9 µM in assay [3]; above 100 µM in [10]; 21.8 µM in assay [4]; 46.5 µM in assay [5]. Further, the GI50 in assay [6] was above 100 µM; in [7], 58 µM; in [8], 41.8 µM; in assay [9], 60.2 µM. The TGI in assay [1], in assay [2], in assay [3], in assay [10], in assay [4] and in assay [5] was above 100 µM in each case. Also, the TGI in assay [6], in [7], in assay [8] and in assay [9] was above 100 µM in each case.

Take `Nc1nnc(Cn2c(-c3ccccc3)nc3ccc(Br)cc3c2=O)s1`: the GI50 in assay [1] is 25 µM; in [2], 64.6 µM; in assay [3], 85.4 µM; in assay [10], 49 µM; in assay [4] it was 45.9 µM; in [5], above 100 µM. For the same compound, the GI50 in assay [6] was 38.1 µM; in [7] it was above 100 µM; in [8] it was 32.9 µM; in assay [9], 38.4 µM. For the same compound, the TGI in assay [1], in assay [2], in assay [3], in assay [10], in assay [4] and in [5] was above 100 µM in each case. The TGI in [6], in assay [7], in assay [8] and in [9] was above 100 µM in each case.

`CCCCCCCC(=O)SCC/C=C/[C@@H]1CC(=O)NCc2nc(co2)C2=N[C@@](C)(CS2)C(=O)N[C@@H](C(C)C)C(=O)O1`: the GI50 in assay [1] is 0.0184 µM; in assay [2], 0.0342 µM; in [3], 0.0123 µM; in [10], 0.0205 µM; in [4], 0.0148 µM; in assay [5], 0.0137 µM. Further, the GI50 in [6] was 0.00808 µM; in assay [7], 0.0422 µM; in assay [8], 0.0182 µM; in assay [9] it was 0.0448 µM. The TGI in assay [1] was 1.91 µM; in assay [2], 0.141 µM; in assay [3], above 50 µM; in [10], above 50 µM; in [4], 1.63 µM; in [5], 8.55 µM. Besides, the TGI was 0.121 µM in assay [6], 8.34 µM in [7], above 50 µM in assay [8] and 0.472 µM in assay [9].

Regarding `COc1ccc(-c2ccc(/C=N/n3c(C)nn(CN4CCN(C)CC4)c3=S)o2)c([N+](=O)[O-])c1`, the GI50 in assay [1] was 60.8 µM; in [2], 52.5 µM; in assay [3], above 100 µM; in [10], 42.4 µM; in [4], 14.2 µM; in assay [5], 29.3 µM. Besides, the GI50 was 65 µM in assay [6], 28.2 µM in assay [7] and 54.4 µM in assay [8]. The TGI was above 100 µM in assay [1]; above 100 µM in assay [2]; above 100 µM in assay [3]; above 100 µM in [10]; 31 µM in assay [4]; above 100 µM in assay [5]. Also, the TGI in assay [6], in assay [7] and in assay [8] was above 100 µM throughout.

On to `O=[N+]([O-])c1ccc(Sc2c3ccccc3nc3ccccc23)nc1`, for which the TGI in [1] came out at 43.7 µM; in assay [2], 6.39 µM; in assay [3], 14.3 µM; in assay [10] it was 10.4 µM; in [4], 21.3 µM; in assay [5], 42.6 µM. Moreover, the TGI in assay [6] amounted to 8.09 µM; in assay [7], 19 µM; in assay [8] it was 31.2 µM; in [9], 46.3 µM.

Consider `NC(=O)/C=C/NC(=O)/C=N\O`, for which the TGI in [2], in assay [3], in [10], in assay [4], in assay [5] and in [6] was above 100 µM in each case. Further, the TGI in assay [7], in assay [8] and in [9] was above 100 µM in each case.

Turning to `CN(CCCl)c1ccc(/C=C/C2=[N+](C)c3ccccc3C2(C)C)cc1`, the GI50 was 0.9 µM in assay [1]; 0.339 µM in assay [2]; 0.598 µM in assay [3]; 1.03 µM in assay [10]; 0.415 µM in assay [4]; 0.679 µM in assay [5]. For the same compound, the GI50 in assay [6] is 0.296 µM; in [7], 0.691 µM; in [8], 2.11 µM; in assay [9], 0.253 µM. Besides, the TGI in assay [1] is 12.5 µM; in [2], 1.56 µM; in assay [3] it was 15.3 µM; in [10], 14.8 µM; in [4], 2.46 µM; in [5], 10.6 µM. Also, the TGI in assay [6] worked out at 3.89 µM; in [7], 13.5 µM; in assay [8], 13.8 µM; in assay [9], 11.2 µM.

Regarding `O=[N+]([O-])c1ccc2ncccc2c1Cl`, the GI50 in assay [1] is 3.29 µM; in assay [3], 3.4 µM; in [10], 3.01 µM; in assay [4], 2.18 µM; in assay [5], 3.47 µM; in assay [6], 2.74 µM. The GI50 in assay [7] was 3.89 µM; in [8], 2.76 µM; in [9], 3.38 µM. Moreover, the TGI in [1] is above 100 µM; in assay [3] it was 10.2 µM; in [10] it was 11.5 µM; in assay [4], 9.07 µM; in [5] it was 16.6 µM; in assay [6], 6.59 µM. Besides, the results for the TGI in assay [7], in assay [8] and in [9] were 13.9 µM, 34.2 µM and 11.8 µM, respectively.

Consider `COc1ccc(-c2c(-c3cc(OC)c4c(c3)OCO4)noc2N)cc1`, for which the GI50 is 0.0663 µM in [1]; 0.0347 µM in assay [2]; 0.041 µM in assay [3]; 0.0339 µM in assay [5]; 0.11 µM in assay [7]; 0.0339 µM in assay [8]. The GI50 in assay [9] is 0.0382 µM. For the same compound, the TGI in assay [1] is above 100 µM; in assay [2] it was 0.122 µM; in [3], 1.97 µM; in assay [4], 0.0251 µM; in assay [5], 10.9 µM; in [6], 0.0239 µM. Also, the TGI in assay [7] was above 91 µM; in assay [8], 11.7 µM; in assay [9], 42.7 µM.
